Reference: article PMC12880750, “Mechanistic insights and in vivo HIV suppression by the BRD4-targeting small molecule ZL0580” (PLOS Pathogens, 2026)

Columns and labels:
[1] = tested on: CDK9 binding to HIV 5′-LTR in J-Lat cells (10.6); test: ChIP-qPCR of CDK9 binding to HIV 5'-LTR; assay type: cell-based, human; conditions: PMA 50ng/ml, 24 hours
Description: Twenty-four hours later, cells were subjected to ChIP-qPCR using an anti-CDK9 antibody, with isotype IgG as the ChIP control.
24 hours after treatments, ChIP-qPCR was performed using a CDK9-specific antibody to examine the recruitment of CDK9 to HIV 5’-LTR in J-Lat cells. ChIP using an isotype IgG was included for normalization. Data were shown as fold change in the precipitated HIV 5′ LTR by the CDK9 antibody relative to the control isotype IgG for each treatment condition.
ChIP was performed using a method reported previously [41]. About 15 × 10⁶ J-Lat cells were treated according to the conditions described in the Main Text. After treatment, cells were collected, washed once with PBS, and resuspended in 10 mL PBS. To cross-link protein–DNA complexes, cells were fixed with 37% formaldehyde, and the reaction was quenched by adding 10Xglycine and incubating for 5 min at room temperature. The cells were then pelleted by centrifugation, and the pellets were incubated in ice-cold lysis buffer for 30 min. […] After extensive washing with the appropriate ChIP buffers, immune complexes were eluted, reverse cross-linked, and treated with proteinase K. DNA was purified using phenol–chloroform extraction and subsequently analyzed by qPCR. […] ChIP-qPCR results were quantified using the fold-enrichment method as previously reported [41].

[2] = tested on: BRD4-knockout (KO) J-Lat cells; test: RT-qPCR of differentially expressed genes, BRD4-KO J-Lat cells; assay type: cell-based, human; conditions: same treatments
Description: To validate the RNA-Seq results, RT-qPCR analysis was performed on a subset of differentially expressed genes (DEGs) (Fig 3E). Eight representative DEGs were selected based on statistical significance (adjusted p values) and their involvement in key pathways identified by GSEA, including lipid metabolism/cholesterol biosynthesis (HMGCS1, SQLE, DHCR7) and cytokine signaling (ITK and DUSP8). Relative gene expression levels were normalized to the housekeeping gene GAPDH. […] As an additional control, RT-qPCR was also performed on RNA isolated from BRD4-knockout (KO) J-Lat cells that received the same treatments. The generation and characterization of BRD4-KO J-Lat cells were described previously.
RT-qPCR was performed as previously reported.

SMILES	Increase in CDK9 occupancy at the HIV promoter relative to NC [1]	Contrasting regulatory effects on representative DEGs in the absence of BRD4 [2]
CCCCCCCCCCCCCC(=O)O[C@@H]1[C@@H](C)[C@@]2(O)[C@@H](C=C(CO)C[C@]3(O)C(=O)C(C)=C[C@@H]23)[C@@H]2C(C)(C)[C@]12OC(C)=O [PMA, reference compound]	~ 19 fold	–
Cc1sc2c(c1C)C(c1ccc(Cl)cc1)=N[C@@H](CC(=O)OC(C)(C)C)c1nnc(C)n1-2 [JQ1, reference compound]	–	largely abolished
